The text below walks through data of US11554151B2, “Composition containing Perilla frutescens fermented extract for prevention, alleviation, or treatment of sleep disorder” (AJOU UNIVERSITY INDUSTRY-ACADEMIC COOPERATION FOUNDATION, priority 2017, dated 2023).

The test has as its system ICR mice. Description: Pentobarbital-induced sleep test (sleep latency and total sleeping time). The format is in vivo. The settings on record: Example 2-1; positive control, 1 mg/kg oral, 30 min before pentobarbital 45 mg/kg i.p. The protocol:
The sleep improvement effects of the Perilla frutescens fermented extract and conventionally sold sedatives were intended to be confirmed from comparison of sleep latency and total sleeping time.
Specifically, 0.9% physiological saline, 10 mg/kg of the Perilla frutescens extract (Perilla-W) or fermented extract thereof (Perilla-B) prepared in [Example 1], and 1 mg/kg of diazepam (Myung In Pharm. Co., Ltd.) were each orally administered to ICR mice (OrientBio). 30 minutes after the administration of the test materials, 45 mg/kg of a nerve stabilizer pentobarbital (HANLIM PHARM. Co., Ltd.) was intraperitoneally administered to induce sleep. After the administration of pentobarbital, the time required to go into deep sleep (sleep latency) and the total sleep maintenance time (total sleeping time) were measured for each test material administration group. Physiological saline and diazepam were used as a control and a positive control, respectively.
Specifically, sleep latency and total sleeping time ere measured in the same manner as in Example <2-1> using 0.9% physiological saline and 10 mg/kg of the Perilla frutescens extract (Perilla-W) or fermented extract thereof (Perilla-B, Perilla-L, and Perilla-S) prepared in [Example 1].

Consider `CN1C(=O)CN=C(c2ccccc2)c2cc(Cl)ccc21` [diazepam], for which the sleep latency was found to be 220 s.
